# Literature values, collected in patent US20130171256A1 (CIMA LABS Inc., priority 2010, published 2013).
# Experiments:
# Conditions in all cases: preclinical studies
# [1] = test system: neuronal norepinephrine reuptake
# [2] = test system: neuronal serotonin reuptake
# dopamine reuptake = test system: dopamine reuptake
Structure (SMILES),inhibition of neuronal norepinephrine reuptake [1],inhibition of neuronal serotonin reuptake [2],inhibition of dopamine reuptake (dopamine reuptake)
CN(C)CC(c1ccc(O)cc1)C1(O)CCCCC1 (centres unmarked) [O-desmethylvenlafaxine],potent inhibitors,potent inhibitors,weak inhibitors
COc1ccc(C(CN(C)C)C2(O)CCCCC2)cc1 (centres unmarked) [Venlafaxine],potent inhibitors,,weak inhibitors
